In US20200038413A1, “METHODS OF TREATING PARKINSON'S DISEASE USING AMINOSTEROL COMPOSITIONS” (Enterin, Inc., priority 2018, published 2020):
Values joined by “and” are separate entries in the source; they are usually repeats but may differ in a detail not shown here. Identical values can stand only once.

Experiments:
[1] = system: patients with PD and constipation; test: Phase 2 trial Stage 2: daily oral dosing, bowel function / stool related indices; type: in vivo, human
Experimental: Following successful screening, all subjects underwent a 14-day run-in period where the degree of constipation was assessed through a validated daily log (Zinsmeister et al. 2013) establishing baseline CSBMs/week. Subjects with an average of <3 CSBMs/week proceeded to dosing.
In Stage 2, 34 patients were evaluated.
The primary efficacy outcome variable was whether or not a subject was a “success” or “failure”. This is an endpoint based on subject diary entries for the “fixed dose” period prior to the endpoint assessment defined as average complete stool frequency increase by 1 or more over baseline, or 3 or more complete spontaneous stools/week. The subject was deemed a “success” if s/he met one or more of the criteria listed above, otherwise the subject was deemed a “failure”. The primary analysis was based on all subjects with a baseline assessment and an assessment at the end of the “fixed-dose” period and was a comparison of the proportion of successes with 0.10 (the null hypothesis corresponding to no treatment effect).

[2] = system: patients with PD and constipation; test: Phase 2 trial Stage 2: CNS symptoms (UPDRS, MMSE, PDHQ, BDI-II, sleep diary); type: in vivo, human
Text: Exploratory end-points, in addition to constipation, included for example, (i) depression assessed using the Beck Depression Inventory (BDI-II) (Steer et al. 2000) and Unified Parkinson's Disease Rating Scale (UPDRS); (ii) cognition assessed using the Mini Mental State Examination (MMSE) (Palsteia et al. 2018), Unified Parkinson's Disease Rating Scale (UPDRS), and Trail Making Test (TMT); (iii) sleep and REM-behavior disorder (RBD) using a daily sleep diary, I-Button Temperature Assessment, a REM sleep behavior disorder (RBD) questionnaire (RBDQ) (Stiasny-Kolster et al. 2007), and the UPDRS; (iv) hallucinations assessed using the PD hallucinations questionnaire (PDHQ) (Papapetropoulos et al. 2008), the UPDRS, and direct questioning; (v) fatigue using the Parkinson's Disease Fatigue Scale (PFS-16) and the UPDRS; (vi) motor functions using the UPDRS; and (vii) non-motor functions using the UPDRS.
Assessments were made at baseline and at the end of the fixed dose and washout periods. Circadian system status was evaluated by continuously monitoring wrist skin temperature (Thermochron iButton DS1921H; Maxim, Dallas) following published procedures (Sarabia et al. 2008).
CNS Symptoms in Stage 2: An exploratory analysis was done with respect to the sleep data, the body temperature data, mood, fatigue, hallucinations, cognition and other motor and non-motor symptoms of PD. Continuous measurements within a subject were compared with a paired t-test and continuous measurements between subject groups were compared with a two-group t-test. Categorical data were compared with a chi-squared test or a Fisher's exact test if the expected cell counts are too small for a chi-squared test.

[3] = system: colon segments (propagating contractile clusters); test: Ex vivo colon motility (PCCs), Swiss Webster, C57BL/6 and CD-1 mice; design: species or system mouse; details: for increase in colonic PCC velocity / colonic PCC velocity: intraluminal 10-30 μM; for colonic PCC velocity: mean±SEM
Experimental: Ex vivo colon motility: For the ex vivo colonic motility experiments, the colon was excised and placed within an organ-bath perfusion chamber filled with warmed, oxygenated Krebs buffer or physiological saline (35° C., 95% O2, 5% CO2). The colon was flushed and cannulated at the oral and anal ends to a manifold and syringe to allow inflow of oxygenated Krebs buffer (or physiological saline) or Krebs and squalamine and to maintain intraluminal pressure. The height of the inflow tube at baseline measurements was parallel to the height of the colon in the organ bath (1.1 cm). Mechanical threshold defined an inflow pressure great enough to generate a contraction in under 30 sec (1.8 cm). Recordings in the first portion of the study were measured at a mechanical threshold causing a pressure differential of 2 hPa (cm H2O). Inflow was raised 2-3 hPa above baseline and outflow was raised a minimum of 0.2 hPa above inflow. Motor patterns were recorded using a Microsoft LifeCam 3000 web camera or a Logitech Quickcam Pro camera positioned 7-8 cm above the tissue. Videos were recorded during a 20-minute Krebs control and a 20-minute Krebs +squalamine period in which solutions were added to the inflow syringe.
Spatiotemporal Maps: Video recordings were used to construct spatiotemporal maps (STmaps) using edge detection software. STmaps are presented as heat maps showing the oral to anal direction across the y-axis and time across the x-axis (FIGS. 9A-C). Color corresponds to the changing diameter of the colon during periods of relaxation (green-yellow) and contraction (red) as contractile motor patterns occurred. ENS-dependent PCCs were defined as broad bands directed from the oral to anal ends that spanned more than 50% of the colon length. Parameters of motor patterns including, velocity, amplitude, and frequency were measured using ImageJ and Matlab (Version 12) software.
Statistical Analysis: Effects of squalamine on motility and IPAN excitability in WT and PD model mice were assessed in paired experiments following Krebs control and subsequent squalamine exposure. Unpaired comparisons were performed for experiments comparing PD control and PD model strains. Percent difference was calculated by (treatment-control)/control. Data are presented as mean±SEM. Ex vivo statistical comparisons were performed using paired or unpaired, two-tailed t-tests or 1-way ANOVA using Graphpad Prism software (Version 7.0). In vivo studies were analysed using 1-way and 2-way ANOVA. Statistical significance was determined when p <0.05.

[4] = system: colon segments (propagating contractile clusters); test: Ex vivo colon motility, A53T human α-synuclein overexpressing mice and WT littermates; design: species or system mouse
[5] = Preclinical oral studies in rats; type: in vivo
[6] = Solubility in water; type: physicochemical; details: pH<3.5 (the pH of gastric fluid)
[7] = system: C. elegans model of PD; details: cited from earlier work
[8] = C57BL/6 mice, vs Krebs control (P=0.27)

CC(C)[C@@H](CC[C@@H](C)[C@H]1CC[C@H]2[C@@H]3[C@H](O)C[C@H]4C[C@@H](NCCCNCCCCN)CC[C@]4(C)[C@H]3CC[C@]12C)OS(=O)(=O)O (single isomer, unassigned) [squalamine (ENT-01), squalamine]
CSBM ([1]; Stage 2, wash-out, mean (SD), baseline 1.2 (0.90)): 1.8 (1.19) | SBM ([1]; Stage 2, wash-out, mean (SD), baseline 2.6 (1.45)): 3.2 (1.80) | response rate (CSBM within 24 hours on at least 2 of 3 days) ([1]; Stage 2 daily dosing, 75 mg): 26% | decrease in use of rescue medication ([1]; fixed dose vs baseline): 83% | improvement in SBM ([1]; fixed dose vs baseline): 73% | improvement in consistency (Bristol stool scale) ([1]; fixed dose vs baseline): 52% | improvement in ease of passage ([1]; fixed dose vs baseline): 16% | increase in total sleep time ([2]; 250 mg vs baseline): 18% | hallucinations and delusions improved or disappeared ([2]; during treatment, patients with hallucinations (5) or delusions (1) at baseline): 5 of 6 | improvement in frequency of arm or leg thrashing ([2]; maximal dose vs baseline): 100% | improvement in UPDRS Part 1 ([2]; wash-out vs baseline): ~20% and 18% | increase in colonic PCC velocity ([3]; C57BL/6 mice, vs Krebs control): 38% | colonic PCC velocity ([3]; C57BL/6 mice, Krebs control 1.31±0.10): 1.80±0.20 mm/s | increase in PCC amplitude [3, 8]: 1% | increase in PCC frequency [3, 8]: 51% | PCC frequency ([3]; C57BL/6 mice, Krebs control 0.007±0.001): 0.010 ±0.003 Hz | PCC amplitude ([3]; C57BL/6 mice, Krebs control 0.66±0.06): 0.70±0.07 cm | increase in colonic PCC velocity ([3]; CD-1 mice, vs Krebs control): 81% | colonic PCC velocity ([3]; CD-1 mice, Krebs control 0.96±0.1): 1.74±0.1 mm/s | increase in PCC frequency ([3]; CD-1 mice, vs Krebs control (P=0.06)): 63% | increase in PCC amplitude ([3]; CD-1 mice, vs Krebs control (P=0.56)): 12% | PCC frequency ([3]; CD-1 mice, Krebs control 0.0099±0.0014): 0.0162±0.0026 Hz | PCC amplitude ([3]; CD-1 mice, Krebs control 0.64±0.19): 0.71±0.19 cm | increase in colonic PCC velocity ([3]; Swiss Webster mice, 20 min, vs Krebs control): 45% | colonic PCC velocity ([3]; Swiss Webster mice, Krebs control 1.14±0.10): 1.66±0.10 mm/s | increase in PCC frequency ([3]; Swiss Webster mice, vs Krebs control): 35% | decrease in PCC amplitude ([3]; Swiss Webster mice, vs Krebs control (P=0.65)): 3% | PCC frequency ([3]; Swiss Webster mice, Krebs control 0.009±0.001): 0.012±0.001 Hz | PCC amplitude ([3]; Swiss Webster mice, Krebs control 0.62±0.05): 0.61±0.05 cm | PCC velocity ([4]; A53T mice, baseline state, intraluminal 30 μM, without drug 1.2±0.2): 2.3±0.4 mm/s | PCC velocity ([4]; A53T mice, colonic expansion (mechanical threshold), 30 μM, without drug 1.6±0.3): 2.1±0.3 mm/s | PCC velocity ([4]; WT mice, baseline state, intraluminal 30 μM, without drug 1.7±0.3): 2.8±0.4 mm/s | PCC velocity ([4]; WT mice, colonic expansion (mechanical threshold), 30 μM, without drug 3.0±0.7): 2.4±0.3 mm/s | tolerability ([5]; oral): well tolerated | oral bioavailability ([5]; preclinical studies): about 0.1% | solubility in water [6]: readily dissolves | muscle paralysis ([7]; C. elegans model of PD (Perni et al. 2017)): complete reversal of muscle paralysis | formation of aggregates of αS ([7]; C. elegans model of PD in vivo (Perni et al. 2017)): inhibit the formation of aggregates of αS
